In data set [1] the target is T1, PTP-OB (Homo sapiens, UniProt Q13332).
T1 construct: we expressed the cytoplasmic domain of PTP-OB and PTPε in bacteria as a GST-fusion protein; made in house; host or cells: bacteria (vector pGEX-2TX, Pharmacia)
T1 sequence (Q13332 1303-1928 isoform Q13332-3 C1437R/N1685K): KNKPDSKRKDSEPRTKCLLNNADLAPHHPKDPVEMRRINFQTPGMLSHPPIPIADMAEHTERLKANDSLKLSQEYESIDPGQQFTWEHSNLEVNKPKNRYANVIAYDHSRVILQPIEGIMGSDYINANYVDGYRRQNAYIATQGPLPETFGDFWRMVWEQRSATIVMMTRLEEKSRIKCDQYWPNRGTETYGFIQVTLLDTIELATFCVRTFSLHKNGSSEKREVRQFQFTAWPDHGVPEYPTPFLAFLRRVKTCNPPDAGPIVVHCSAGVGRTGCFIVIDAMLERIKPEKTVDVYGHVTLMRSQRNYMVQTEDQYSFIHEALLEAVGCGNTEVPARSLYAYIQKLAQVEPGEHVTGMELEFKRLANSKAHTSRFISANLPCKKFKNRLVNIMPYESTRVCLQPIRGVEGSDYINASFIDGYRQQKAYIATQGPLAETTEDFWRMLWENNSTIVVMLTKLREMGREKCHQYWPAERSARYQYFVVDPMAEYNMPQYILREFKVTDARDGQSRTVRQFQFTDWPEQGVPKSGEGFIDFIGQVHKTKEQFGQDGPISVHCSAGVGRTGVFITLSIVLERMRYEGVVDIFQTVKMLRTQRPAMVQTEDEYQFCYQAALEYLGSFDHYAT
As to the kind of experiment: PTP enzymatic assay with recombinant GST-PTP-OB fusion protein (FDP substrate). Format: biochemical. The following applies: pH 5.65, FIG. 8.

Data set [2] has as its system MB1.8 cells. Put plainly: Osteoblast proliferation (thymidine incorporation) in mouse calvaria derived MB1.8 cells. The following applies: micromolar concentrations. The class given is cell-based. On the technique in general: Dividing cells build labelled thymidine or BrdU into new DNA.
Data set [3] relates to rat osteoclasts. Put plainly: cells. Format: cell-based.
The test system of data set [4] is multinucleated TRAP positive osteoclast-like cells. Put plainly: cells. The class given is cell-based, mouse.
For data set [5], the system named is mononucleated TRAP positive cells. The class given is cell-based, mouse.
Data set [6] has as its target PTPε (Mus musculus, UniProt P49446). As to the kind of experiment: PTP enzymatic assay with recombinant GST-PTPε fusion protein (FDP substrate).
For data set [7], the system named is bone cells / osteoblasts. The following applies: cited from earlier work.
Data set [8] deals with bone resorption. The following applies: organ cultures; Krieger and Tashjian; cited from earlier work.
For data set [9], the system named is osteoblasts and bone marrow cells.
Substrate in data set [10]: O=C1OC2(c3ccc(OP(=O)(O)O)cc3Oc3cc(OP(=O)(O)O)ccc32)c2ccccc21
As to the kind of experiment: purified protein, by the assay type. The following applies: other: FDP as substrate of GST-PTPε; pH 5.65.

“Also recorded” adds a separate entry of the source. Where two headings read alike, the source gives them in different places.

For `NCCCC(O)(P(=O)(O)O)P(=O)(O)O` [alendronate], the IC50 (in general, the concentration that gives 50% inhibition) in data set [1] stood at 200 nM. The “thymidine incorporation (mitogenesis) of quiescent osteoblasts” value (“thymidine incorporation (mitogenesis)” below) in [2] is recorded as “stimulated thymidine incorporation”. Also, the inhibition at 10 µM in [3] (Rattus norvegicus, Osteoclast, 24 h, read-out: reduction of the number of resorption pits) was found to be 80%. Further, in data set [4], the “inhibition of formation of multinucleated TRAP positive cells” value is reported as “completely inhibited”. In addition, the “development of mononucleated TRAP positive cells” value in [5] is given as “did not block”.

As to `CC(O)(P(=O)(O)O)P(=O)(O)O` [etidronate], the IC50 in [6] is ~400 nM. Further, the “thymidine incorporation (mitogenesis)” value in data set [2] is “stimulated thymidine incorporation”.

With `COC1=C2C[C@@H](C)C[C@H](OC)[C@H](O)[C@@H](C)/C=C(\C)[C@H](OC(N)=O)[C@@H](OC)/C=C\C=C(/C)C(=O)NC(=CC1=O)C2=O` [geldanamycin], in data set [4], the “inhibition of formation of multinucleated TRAP positive cells” value is on record as “complete inhibition” and the “inhibition of osteoclast formation, in words” value is “potent inhibitor”. The IC50 in [4] (Mus musculus, Osteoclast-like, read-out: IC50, osteoclast formation) came to 0.05 µg/mL. Moreover, in data set [5], the “appearance/development of mononuclear TRAP positive cells” value is “completely blocked; also recorded: inhibited the development of mononuclear TRAP positive cells”.

As for `[O]=[V]([O-])([O-])[O-]` [orthovanadate], in [2], the “thymidine incorporation (mitogenesis)” value is reported as “stimulated thymidine incorporation”. For the same molecule, the “bone cell / osteoblast proliferation” value in data set [7] is “can stimulate osteoblast proliferation; also recorded: stimulated cell proliferation; also recorded: stimulation of cell proliferation”. Besides, the “stimulation of bone resorption induced by PTH” value in [8] is on record as “inhibited”. Besides, the “inhibition of bone resorption, in words” value in data set [3] was “potent inhibitors”. Besides, in data set [3] (osteoclasts on bone slices, 1440 min, 10 µM), the “reduction of the number of resorption pits” value worked out at 80%. Besides, the IC50 in data set [3] (read-out: IC50, bone resorption) came to 2000 nM. For the same molecule, in [4], the “additional effect when added at earlier days of co-culture” value was “small additional effect”; the “inhibition of formation of multinucleated TRAP positive cells” value was “completely inhibited”; the “inhibition of formation of multinucleated TRAP positive cells, in words” value was “completely inhibited”; the “inhibition of formation of multinucleated osteoclastic cells when added at any time up to day six” value is recorded as ≥ 90%. In addition, in data set [4], the “inhibition of formation of the fused TRAP positive cells, in words” value was “markedly inhibited”. The “block of formation of multinucleated TRAP positive cells when added at day six of co-culture” value in data set [4] (bone marrow/osteoblast co-culture, 1440 min) came out at 80%. Also, the 50% inhibitory concentration (IC50) in [4] (read-out: IC50, formation of multinucleated TRAP positive cells) was found to be 2000 nM. In [9], the “effects on the co-cultured osteoblasts” value was “no ill effects” and the “toxicity for osteoblasts or bone marrow cells” value is “no apparent toxicity”. In data set [5], the “development of mononucleated TRAP positive cells” value is on record as “did not block” and the “formation of mononucleated TRAP positive cells” value is listed as “produced mononucleated TRAP positive cells”.

B1: PTPε (Mus musculus) (protein)
chain: RFRKQRKAVVSSNDKKMPNGILEEQEQQRVMLLSRSPSGPKKFFPIPVEHLEEEIRVRSADDCKRFREEFNSLPSGHIQGTFELANKEENREKNRYPNILPNDHCRVILSQVDGIPCSDYINASYIDGYKEKNKFIAAQGPKQETVNDFWRMVWEQRSATIVMLTNLKERKEEKCYQYWPDQGCWTYGNIRVCVEDCVVLVDYTIRKFCIHPQLPDSCKAPRLVSQLHFTSWPDFGVPFTPIGMLKFLKKVKTLNPSHAGPIVVHCSAGVGRTGTFIVIDAMMDMIHSEQKVDVFEFVSRIRNQRPQMVQTDVQYTFIYQALLEYYLYGDTELDVSSLERHLQTLHSTATHFDKIGLEEEFRKLTNVRIMKENMRTGNLPANMKKARVIQIIPYDFNRVILSMKRGQEFTDYINASFIDGYRQKDYFMATQGPLAHTVEDFWRMVWEWKSHTIVMLTEVQEREQDKCYQYWPTEGSVTHGDITIEIKSDTLSEAISVRDFLVTFKQPLARQEEQVRMVRQFHFHGWPEVGIPAEGKGMIDLIAAVQKQQQQTGNHPITVHCSAGAGRTGTFIALSNILERVKAEGLLDVFQAVKSLRLQRPHMVQTLEQYEFCYKVVQDFIDIFSDYANFK
On to B1, for which the Km (as a rule, the concentration of substrate that gives half-maximal velocity) in data set [10] is 70 µM.

Values taken from patent US5866397A, “Human protein tyrosine phosphatase OB protein” (Merck & Co., Inc., priority 1997, dated 1999).
